Numbers after ± are expanded uncertainties.
Test: mn = molality of the nth substance listed, in mol/kg
Settings: 101 kPa, Liquid; for mass density: Vibrating tube method; for electrical conductivity: Wheatstone bridge equipment

Compound: C[N+](C)(C)CCO.[Cl-] [choline chloride] + O
- mass density (278.15 K, m1 = 0.054): 1000.97 ± 0.23 kg/m3
- mass density (278.15 K, m1 = 0.1087): 1001.95 ± 0.24 kg/m3
- mass density (278.15 K, m1 = 0.2554): 1004.5 ± 0.25 kg/m3
- mass density (278.15 K, m1 = 0.5004): 1008.71 ± 0.27 kg/m3
- mass density (278.15 K, m1 = 0.6512): 1011.01 ± 0.28 kg/m3
- mass density (278.15 K, m1 = 0.7484): 1012.68 ± 0.28 kg/m3
- mass density (278.15 K, m1 = 1.203): 1019.28 ± 0.32 kg/m3
- mass density (278.15 K, m1 = 1.504): 1022.75 ± 0.33 kg/m3
- mass density (278.15 K, m1 = 1.992): 1028.85 ± 0.37 kg/m3
- viscosity (278.15 K, m1 = 0.0293): 1.527 ± 0.048 mPa·s
- viscosity (278.15 K, m1 = 0.058): 1.551 ± 0.049 mPa·s
- viscosity (278.15 K, m1 = 0.1113): 1.515 ± 0.048 mPa·s
- viscosity (278.15 K, m1 = 0.2495): 1.577 ± 0.05 mPa·s
- viscosity (278.15 K, m1 = 0.3505): 1.601 ± 0.051 mPa·s
- viscosity (278.15 K, m1 = 0.4956): 1.631 ± 0.052 mPa·s
- viscosity (278.15 K, m1 = 0.6473): 1.695 ± 0.054 mPa·s
- viscosity (278.15 K, m1 = 0.7512): 1.741 ± 0.055 mPa·s
- viscosity (278.15 K, m1 = 0.903): 1.762 ± 0.056 mPa·s
- viscosity (278.15 K, m1 = 1.005): 1.791 ± 0.057 mPa·s
- viscosity (278.15 K, m1 = 1.203): 1.862 ± 0.059 mPa·s
- viscosity (278.15 K, m1 = 1.506): 1.936 ± 0.061 mPa·s
- viscosity (278.15 K, m1 = 1.99): 2.077 ± 0.066 mPa·s
- mass density (288.15 K, m1 = 0.054): 1000.03 ± 0.23 kg/m3
- mass density (288.15 K, m1 = 0.1087): 1000.95 ± 0.23 kg/m3
- mass density (288.15 K, m1 = 0.2554): 1003.33 ± 0.25 kg/m3
- mass density (288.15 K, m1 = 0.5004): 1007.27 ± 0.26 kg/m3
- mass density (288.15 K, m1 = 0.6512): 1009.43 ± 0.27 kg/m3
- mass density (288.15 K, m1 = 0.7484): 1011 ± 0.28 kg/m3
- mass density (288.15 K, m1 = 1.203): 1017.23 ± 0.31 kg/m3
- mass density (288.15 K, m1 = 1.504): 1020.5 ± 0.33 kg/m3
- mass density (288.15 K, m1 = 1.992): 1026.31 ± 0.36 kg/m3
- viscosity (288.15 K, m1 = 0.0293): 1.151 ± 0.036 mPa·s
- viscosity (288.15 K, m1 = 0.058): 1.17 ± 0.037 mPa·s
- viscosity (288.15 K, m1 = 0.1113): 1.164 ± 0.037 mPa·s
- viscosity (288.15 K, m1 = 0.2495): 1.192 ± 0.038 mPa·s
- viscosity (288.15 K, m1 = 0.3505): 1.211 ± 0.038 mPa·s
- viscosity (288.15 K, m1 = 0.4956): 1.237 ± 0.039 mPa·s
- viscosity (288.15 K, m1 = 0.6473): 1.287 ± 0.041 mPa·s
- viscosity (288.15 K, m1 = 0.7512): 1.323 ± 0.042 mPa·s
- viscosity (288.15 K, m1 = 0.903): 1.342 ± 0.043 mPa·s
- viscosity (288.15 K, m1 = 1.005): 1.364 ± 0.043 mPa·s
- viscosity (288.15 K, m1 = 1.203): 1.417 ± 0.045 mPa·s
- viscosity (288.15 K, m1 = 1.506): 1.476 ± 0.047 mPa·s
- viscosity (288.15 K, m1 = 1.99): 1.587 ± 0.05 mPa·s
- mass density (298.15 K, m1 = 0.054): 997.931 ± 0.23 kg/m3
- mass density (298.15 K, m1 = 0.1087): 998.81 ± 0.23 kg/m3
- mass density (298.15 K, m1 = 0.2554): 1001.09 ± 0.24 kg/m3
- mass density (298.15 K, m1 = 0.5004): 1004.84 ± 0.26 kg/m3
- mass density (298.15 K, m1 = 0.6512): 1006.92 ± 0.27 kg/m3
- mass density (298.15 K, m1 = 0.7484): 1008.42 ± 0.28 kg/m3
- mass density (298.15 K, m1 = 1.203): 1014.4 ± 0.31 kg/m3
- mass density (298.15 K, m1 = 1.504): 1017.56 ± 0.33 kg/m3
- mass density (298.15 K, m1 = 1.992): 1023.16 ± 0.36 kg/m3
- electrical conductivity (298.15 K, m1 = 0.0272): 0.279 ± 0.003 S/m
- electrical conductivity (298.15 K, m1 = 0.05): 0.492 ± 0.005 S/m
- electrical conductivity (298.15 K, m1 = 0.1): 0.919 ± 0.01 S/m
- electrical conductivity (298.15 K, m1 = 0.25): 2.03 ± 0.02 S/m
- electrical conductivity (298.15 K, m1 = 0.35): 2.67 ± 0.03 S/m
- electrical conductivity (298.15 K, m1 = 0.5): 3.55 ± 0.04 S/m
- electrical conductivity (298.15 K, m1 = 0.65): 4.37 ± 0.05 S/m
- electrical conductivity (298.15 K, m1 = 0.75): 4.79 ± 0.05 S/m
- electrical conductivity (298.15 K, m1 = 0.9): 5.44 ± 0.06 S/m
- electrical conductivity (298.15 K, m1 = 1.205): 6.54 ± 0.07 S/m
- electrical conductivity (298.15 K, m1 = 1.505): 7.43 ± 0.08 S/m
- electrical conductivity (298.15 K, m1 = 1.994): 8.53 ± 0.09 S/m
- viscosity (298.15 K, m1 = 0.0293): 0.875 ± 0.028 mPa·s
- viscosity (298.15 K, m1 = 0.058): 0.888 ± 0.028 mPa·s
- viscosity (298.15 K, m1 = 0.1113): 0.903 ± 0.029 mPa·s
- viscosity (298.15 K, m1 = 0.2495): 0.908 ± 0.029 mPa·s
- viscosity (298.15 K, m1 = 0.3505): 0.928 ± 0.029 mPa·s
- viscosity (298.15 K, m1 = 0.4956): 0.95 ± 0.03 mPa·s
- viscosity (298.15 K, m1 = 0.6473): 0.984 ± 0.031 mPa·s
- viscosity (298.15 K, m1 = 0.7512): 1.009 ± 0.032 mPa·s
- viscosity (298.15 K, m1 = 0.903): 1.023 ± 0.033 mPa·s
- viscosity (298.15 K, m1 = 1.005): 1.043 ± 0.033 mPa·s
- viscosity (298.15 K, m1 = 1.203): 1.082 ± 0.034 mPa·s
- viscosity (298.15 K, m1 = 1.506): 1.127 ± 0.036 mPa·s
- viscosity (298.15 K, m1 = 1.99): 1.234 ± 0.039 mPa·s
- mass density (308.15 K, m1 = 0.054): 994.893 ± 0.23 kg/m3
- mass density (308.15 K, m1 = 0.1087): 995.745 ± 0.23 kg/m3
- mass density (308.15 K, m1 = 0.2554): 997.961 ± 0.24 kg/m3
- mass density (308.15 K, m1 = 0.5004): 1001.61 ± 0.26 kg/m3
- mass density (308.15 K, m1 = 0.6512): 1003.63 ± 0.27 kg/m3
- mass density (308.15 K, m1 = 0.7484): 1005.09 ± 0.28 kg/m3
- mass density (308.15 K, m1 = 1.203): 1010.92 ± 0.31 kg/m3
- mass density (308.15 K, m1 = 1.504): 1014 ± 0.32 kg/m3
- mass density (308.15 K, m1 = 1.992): 1019.47 ± 0.35 kg/m3
- viscosity (308.15 K, m1 = 0.0293): 0.715 ± 0.023 mPa·s
- viscosity (308.15 K, m1 = 0.058): 0.724 ± 0.023 mPa·s
- viscosity (308.15 K, m1 = 0.1113): 0.732 ± 0.023 mPa·s
- viscosity (308.15 K, m1 = 0.2495): 0.746 ± 0.024 mPa·s
- viscosity (308.15 K, m1 = 0.3505): 0.757 ± 0.024 mPa·s
- viscosity (308.15 K, m1 = 0.4956): 0.774 ± 0.025 mPa·s
- viscosity (308.15 K, m1 = 0.6473): 0.811 ± 0.026 mPa·s
- viscosity (308.15 K, m1 = 0.7512): 0.826 ± 0.026 mPa·s
- viscosity (308.15 K, m1 = 0.903): 0.835 ± 0.027 mPa·s
- viscosity (308.15 K, m1 = 1.005): 0.854 ± 0.027 mPa·s
- viscosity (308.15 K, m1 = 1.203): 0.884 ± 0.028 mPa·s
- viscosity (308.15 K, m1 = 1.506): 0.921 ± 0.029 mPa·s
- viscosity (308.15 K, m1 = 1.99): 1.007 ± 0.032 mPa·s
- mass density (318.15 K, m1 = 0.054): 991.063 ± 0.23 kg/m3
- mass density (318.15 K, m1 = 0.1087): 991.902 ± 0.23 kg/m3
- mass density (318.15 K, m1 = 0.2554): 994.085 ± 0.24 kg/m3
- mass density (318.15 K, m1 = 0.5004): 997.683 ± 0.26 kg/m3
- mass density (318.15 K, m1 = 0.6512): 999.672 ± 0.27 kg/m3
- mass density (318.15 K, m1 = 0.7484): 1001.11 ± 0.27 kg/m3
- mass density (318.15 K, m1 = 1.203): 1006.86 ± 0.3 kg/m3
- mass density (318.15 K, m1 = 1.504): 1009.9 ± 0.32 kg/m3
- mass density (318.15 K, m1 = 1.992): 1015.31 ± 0.35 kg/m3
- viscosity (318.15 K, m1 = 0.0293): 0.633 ± 0.02 mPa·s
- viscosity (318.15 K, m1 = 0.058): 0.61 ± 0.019 mPa·s
- viscosity (318.15 K, m1 = 0.1113): 0.623 ± 0.02 mPa·s
- viscosity (318.15 K, m1 = 0.2495): 0.638 ± 0.02 mPa·s
- viscosity (318.15 K, m1 = 0.3505): 0.646 ± 0.021 mPa·s
- viscosity (318.15 K, m1 = 0.4956): 0.656 ± 0.021 mPa·s
- viscosity (318.15 K, m1 = 0.6473): 0.694 ± 0.022 mPa·s
- viscosity (318.15 K, m1 = 0.7512): 0.69 ± 0.022 mPa·s
- viscosity (318.15 K, m1 = 0.903): 0.702 ± 0.022 mPa·s
- viscosity (318.15 K, m1 = 1.005): 0.721 ± 0.023 mPa·s
- viscosity (318.15 K, m1 = 1.203): 0.747 ± 0.024 mPa·s
- viscosity (318.15 K, m1 = 1.506): 0.776 ± 0.025 mPa·s
- viscosity (318.15 K, m1 = 1.99): 0.843 ± 0.027 mPa·s

Compound: O [water] + C[N+](C)(C)CCO.[Cl-]
- mass density (278.15 K, m2 = 0): 999.961 ± 0.23 kg/m3

Source: the NIST ThermoML archive (doi:10.1021/je200856f)
